# According to patent US8980926B2, “2-aminoindole compounds and methods for the treatment of malaria” (Genzyme Corporation, priority 2009, dated 2015):
# Test system: P. falciparum strain 3D7
# Assay: In vitro potency against P. falciparum strain 3D7 (SYBR green/DAPI)
# Type: cell-based
# Conditions: Plasmodium falciparum, reductions in parasitemia, read-out: IC50 values
row,Structure (SMILES),IC50 [nM]
1,NC1=Nc2ccccc2C1(O)c1ccccc1 (stereo not drawn) [Compound 4],100 to 500
2,CC(C)(C)c1ccc(C2(O)C(N)=Nc3ccccc32)cc1 (stereo not drawn) [Compound 6],500 to 1000
3,COc1cccc(C2(O)C(N)=Nc3ccccc32)c1 (stereo not drawn) [Compound 7],100 to 500
4,NC1=Nc2ccccc2C1(O)c1ccc(C(F)(F)F)cc1 (stereo not drawn) [Compound 8],100 to 500
5,NC1=Nc2ccccc2C1(O)c1cccc2ccccc12 (stereo not drawn) [Compound 10],1 to 100
6,NC1=Nc2ccc(Cl)cc2C1(O)c1ccc2c(c1)OCO2 (stereo not drawn) [Compound 13],100 to 500
7,NC1=Nc2ccccc2C1(O)c1cccc(C(F)(F)F)c1 (stereo not drawn) [Compound 19],100 to 500
8,NC1=Nc2ccccc2C1(O)c1ccc(N2CCOCC2)cc1 (stereo not drawn) [Compound 20],500 to 1000
9,Cc1ccc(C2(O)C(N)=Nc3ccc(Cl)cc32)cc1 (stereo not drawn) [Compound 22],500 to 1000
10,COc1cccc(C2(O)C(N)=Nc3ccc(Cl)cc32)c1 (stereo not drawn) [Compound 23],100 to 500
11,NC1=Nc2ccc(Cl)cc2C1(O)c1ccc2ccccc2c1 (stereo not drawn) [Compound 24],100 to 500
12,NC1=Nc2ccccc2C1(O)c1ccc2ccccc2c1 (stereo not drawn) [Compound 25],100 to 500
13,CC(C)c1ccccc1C1(O)C(N)=Nc2ccc(Cl)cc21 (stereo not drawn) [Compound 27],1 to 100
14,Cc1ccccc1C1(O)C(N)=Nc2ccccc21 (stereo not drawn) [Compound 30],100 to 500
15,NC1=Nc2cccc(Cl)c2C1(O)c1ccccc1 (stereo not drawn) [Compound 33],100 to 500
16,NC1=Nc2cc(Cl)ccc2C1(O)c1ccccc1 (stereo not drawn) [Compound 34],500 to 1000
17,NC1=Nc2c(Cl)cccc2C1(O)c1ccccc1 (stereo not drawn) [Compound 35],1000 to 5000
18,NC1=Nc2ccc(F)cc2C1(O)c1ccccc1 (stereo not drawn) [Compound 36],100 to 500
19,NC1=Nc2ccc(Cl)cc2C1(O)CC1CCCCC1 (stereo not drawn) [Compound 43],1 to 100

row,Structure (SMILES),IC50 [nM]
1,COc1cc(C2(O)C(N)=Nc3ccc(Cl)cc32)c2ccccc2c1 (stereo not drawn) [Compound 45],5000 to 15000
2,NC1=Nc2c(ccc(Cl)c2Cl)C1(O)c1ccccc1 (stereo not drawn) [Compound 46],1000 to 5000
3,NC1=Nc2ccc(Cl)cc2C1(O)c1ccccn1 (stereo not drawn) [Compound 49],1000 to 5000
4,NC1=Nc2cc(Cl)c(Cl)cc2C1(O)c1ccccc1 (stereo not drawn) [Compound 51],500 to 1000
5,NC1=Nc2ccc(Cl)cc2C1(O)c1cccc2ncccc12 (stereo not drawn) [Compound 59],100 to 500
6,NC1=Nc2ccc(O)cc2C1(O)c1ccccc1 (stereo not drawn) [Compound 62],5000 to 15000
7,COc1cc(C2(O)C(N)=Nc3ccc(C)cc32)c2ccccc2c1 (stereo not drawn) [Compound 63],5000 to 15000
8,CCOc1nc(Cl)ccc1C1(O)C(N)=Nc2ccc(C)cc21 (stereo not drawn) [Compound 64],5000 to 15000
9,NC1=Nc2ccc(OCc3ccccc3)cc2C1(O)c1ccccc1 (stereo not drawn) [Compound 65],5000 to 15000
10,NC1=Nc2ccc(Cl)cc2C1(O)c1cccc2c1OCC2 (stereo not drawn) [Compound 67],1 to 100
11,CN(C)c1ccc(C2(O)C(N)=Nc3ccc(Cl)cc32)c2ccccc12 (stereo not drawn) [Compound 68],1 to 100
12,Cc1ccccc1C1(O)C(N)=Nc2ccc(Cl)cc21 (stereo not drawn) [Compound 71],1 to 100
13,COc1ccc(C2(O)C(N)=Nc3ccc(Cl)cc32)cc1 (stereo not drawn) [Compound 72],500 to 1000
14,CC(C)Oc1ccc2c(c1)C(O)(c1ccccc1)C(N)=N2 (stereo not drawn) [Compound 76],100 to 500
15,CN(C)c1ccccc1C1(O)C(N)=Nc2ccc(Cl)cc21 (stereo not drawn) [Compound 80],1 to 100
16,NC1=Nc2ccc(Cl)cc2C1(O)c1cccc2cnccc12 (stereo not drawn) [Compound 81],100 to 500
17,NC1=Nc2ccc(Cl)cc2C1(O)c1ccc(F)cc1 (stereo not drawn) [Compound 83],100 to 500
18,Cc1cccc(C2(O)C(N)=Nc3ccc(Cl)cc32)c1C (stereo not drawn) [Compound 84],100 to 500
19,NC1=Nc2ccc(Cl)cc2C1(O)c1ccc(O)cc1 (stereo not drawn) [Compound 85],5000 to 15000

# Results, then the compound that gave them:
row,IC50 [nM],Structure (SMILES)
1,100 to 500,COc1ccc(C2(O)C(N)=Nc3ccccc32)cc1 (stereo not drawn) [Compound 5]
2,1000 to 5000,CC1(O)C(N)=Nc2ccccc21 (stereo not drawn) [Compound 9]
3,1 to 100,NC1=Nc2ccc(Cl)cc2C1(O)c1ccc(F)c2ccccc12 (stereo not drawn) [Compound 12]
4,100 to 500,NC1=Nc2ccc(Cl)cc2C1(O)c1cccc(C(F)(F)F)c1 (stereo not drawn) [Compound 14]
5,100 to 500,CN(C)c1cccc(C2(O)C(N)=Nc3ccccc32)c1 (stereo not drawn) [Compound 15]
6,100 to 500,NC1=Nc2ccc(Cl)cc2C1(O)c1ccc(C(F)(F)F)cc1 (stereo not drawn) [Compound 16]
7,500 to 1000,NC1=Nc2ccc(Cl)cc2C1(O)c1ccc(N2CCOCC2)cc1 (stereo not drawn) [Compound 17]
8,100 to 500,CC(C)(C)c1ccc(C2(O)C(N)=Nc3ccc(Cl)cc32)cc1 (stereo not drawn) [Compound 18]
9,100 to 500,CN(C)c1cccc(C2(O)C(N)=Nc3ccc(Cl)cc32)c1 (stereo not drawn) [Compound 21]
10,100 to 500,CCCCC1(O)C(N)=Nc2ccc(Cl)cc21 (stereo not drawn) [Compound 26]
11,100 to 500,NC1=Nc2ccc(Cl)cc2C1(O)c1cccc(F)c1 (stereo not drawn) [Compound 28]
12,100 to 500,NC1=Nc2ccc(Cl)c(Cl)c2C1(O)c1ccccc1 (stereo not drawn) [Compound 40]
13,1 to 100,NC1=Nc2ccc(Br)cc2C1(O)c1ccccc1 (stereo not drawn) [Compound 41]
14,100 to 500,COc1ccc2c(c1)C(O)(c1ccccc1)C(N)=N2 (stereo not drawn) [Compound 42]
15,5000 to 15000,COc1cc(C2(O)C(N)=Nc3ccc(Cl)cc32)c2c(ccn2C)c1 (stereo not drawn) [Compound 44]
16,1000 to 5000,NC1=Nc2ccc(OC(F)(F)F)cc2C1(O)c1ccccc1 (stereo not drawn) [Compound 47]
17,500 to 1000,CCCCc1ccc2c(c1)C(O)(c1ccccc1)C(N)=N2 (stereo not drawn) [Compound 48]
18,1000 to 5000,NC1=Nc2cc(Cl)cc(Cl)c2C1(O)c1ccccc1 (stereo not drawn) [Compound 52]
19,500 to 1000,CC(C)c1ccc2c(c1)C(O)(c1ccccc1)C(N)=N2 (stereo not drawn) [Compound 53]

row,IC50 [nM],Structure (SMILES)
1,100 to 500,CC(C)CC1(O)C(N)=Nc2ccc(Cl)cc21 (stereo not drawn) [Compound 54]
2,1000 to 5000,NC1=Nc2c(Cl)cc(Cl)cc2C1(O)c1ccccc1 (stereo not drawn) [Compound 55]
3,100 to 500,COc1cc2c(cc1OC)C(O)(c1ccccc1)C(N)=N2 (stereo not drawn) [Compound 56]
4,100 to 500,NC1=Nc2cc3c(cc2C1(O)c1ccccc1)OCO3 (stereo not drawn) [Compound 57]
5,100 to 500,NC1=Nc2ccc(Cl)cc2C1(O)c1cccc2cccnc12 (stereo not drawn) [Compound 58]
6,1000 to 5000,NC1=Nc2ccc(Cl)cc2C1(O)c1nccs1 (stereo not drawn) [Compound 60]
7,5000 to 15000,COc1ccc2c(c1)C(O)(c1cc(OC)cc3ccccc13)C(N)=N2 (stereo not drawn) [Compound 61]
8,5000 to 15000,NC1=Nc2ncccc2C1(O)c1ccccc1 (stereo not drawn) [Compound 66]
9,100 to 500,NC1=Nc2ccc(Cl)cc2C1(O)c1cccc2c1oc1ccccc12 (stereo not drawn) [Compound 69]
10,1 to 100,COc1ccccc1C1(O)C(N)=Nc2ccc(Cl)cc21 (stereo not drawn) [Compound 70]
11,1 to 100,COc1cccc(C2(O)C(N)=Nc3ccc(Cl)cc32)c1OC (stereo not drawn) [Compound 73]
12,100 to 500,NC1=Nc2ccc(Cl)cc2C1(O)CCc1ccccc1 (stereo not drawn) [Compound 74]
13,100 to 500,CC(C)(C)C1(O)C(N)=Nc2ccc(Cl)cc21 (stereo not drawn) [Compound 75]
14,100 to 500,NC1=Nc2cc3c(cc2C1(O)c1ccccc1)OCCO3 (stereo not drawn) [Compound 77]
15,1 to 100,COc1ccc(C2(O)C(N)=Nc3ccc(Cl)cc32)c2ccccc12 (stereo not drawn) [Compound 78]
16,1000 to 5000,NC1=Nc2ccc(Cl)cc2C1(O)c1ccncc1 (stereo not drawn) [Compound 79]
17,1 to 100,NC1=Nc2ccc(Cl)cc2C1(O)c1cccc2ccsc12 (stereo not drawn) [Compound 82]
18,1 to 100,COc1ccc(C2(O)C(N)=Nc3ccc(Cl)cc32)c(OC)c1 (stereo not drawn) [Compound 86]
